As a reminder, the solubility is how much of the substance goes into solution per volume.

This series is described as follows: Aqueous solubility in DI water (visual inspection). It counts as physicochemical. The conditions noted are these: HCl salt, incubated at 50 or 100 mg/mL. The protocol:
In order to determine the aqueous solubility of the compounds described herein, the HCl salts of the following compounds were incubated at either 50 or 100 mg/mL in DI water and visually inspected for insoluble material.

Each structure is given as a SMILES string.

Consider `CNCC1CN(C(=O)CCOCCOCCOCCOC)CCN1C(=O)Oc1ccc(CNC(=O)CCCC/C=C/C(C)C)cc1OC` (stereo not shown) [Compound 1, (E)-2-methoxy-4-((8-methylnon-6-enamido)methyl)phenyl 2-((methylamino)methyl)-4-(2,5,8,11-tetraoxatetradecan-14-oyl)piperazine-1-carboxylate], for which the solubility was more than 100 mg/mL.
